Values joined by “and” are separate entries in the source; they are usually repeats but may differ in a detail not shown here. Equal values may be shown once. Read-outs that look alike come from different tables or passages of the source.
Columns and labels:
Assay in all cases: nanoBRET off-target validation
Type in all cases: cell-based
TTK = biological target: T1, TTK (Homo sapiens, UniProt P33981)
T1 construct: host or cells: HEK293T (ATCC CRL-3216)
T1 sequence (P33981 1-857): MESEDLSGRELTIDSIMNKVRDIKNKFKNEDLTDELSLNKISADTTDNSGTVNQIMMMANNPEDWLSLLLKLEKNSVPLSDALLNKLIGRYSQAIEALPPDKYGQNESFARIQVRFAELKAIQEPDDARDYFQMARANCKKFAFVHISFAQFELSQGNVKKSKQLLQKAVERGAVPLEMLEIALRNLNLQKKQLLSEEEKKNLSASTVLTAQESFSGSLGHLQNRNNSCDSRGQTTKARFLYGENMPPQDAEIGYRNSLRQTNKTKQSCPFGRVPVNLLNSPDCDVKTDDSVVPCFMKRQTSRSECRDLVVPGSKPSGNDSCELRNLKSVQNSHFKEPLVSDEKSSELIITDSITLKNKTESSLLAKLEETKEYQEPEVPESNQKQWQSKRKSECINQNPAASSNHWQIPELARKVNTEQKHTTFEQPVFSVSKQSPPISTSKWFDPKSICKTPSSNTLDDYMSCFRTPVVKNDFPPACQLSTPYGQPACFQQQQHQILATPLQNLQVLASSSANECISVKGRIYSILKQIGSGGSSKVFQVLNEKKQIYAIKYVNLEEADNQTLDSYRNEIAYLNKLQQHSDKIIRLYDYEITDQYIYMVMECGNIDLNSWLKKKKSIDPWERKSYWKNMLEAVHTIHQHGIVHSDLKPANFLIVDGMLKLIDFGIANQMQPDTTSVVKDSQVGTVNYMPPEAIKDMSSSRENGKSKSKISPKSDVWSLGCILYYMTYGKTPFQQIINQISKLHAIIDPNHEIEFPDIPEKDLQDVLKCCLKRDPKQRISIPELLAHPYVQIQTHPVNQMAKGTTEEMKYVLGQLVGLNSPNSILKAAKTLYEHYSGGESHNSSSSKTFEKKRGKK
Method: (§1) The assay was performed as described previously ([61]). In brief, full-length kinases as listed in table S6 were obtained as plasmids cloned in frame with terminal NanoLuc-fusion (gift from Promega; table S6). […] Serially diluted inhibitor and corresponding tracer as listed in table S6 at the Tracer KD concentration taken from TracerDB (tracerdb.org) ([62]) were pipetted into white 384-well plates (Greiner, 781207) using an ECHO acoustic dispenser (Labcyte). The corresponding protein-transfected cells were added and reseeded at a density of 2 × 10^5 cells/ml after trypsinization and resuspending in Opti-MEM without phenol red (Life Technologies). The system was allowed to equilibrate for 3 hours at 37°C/5% CO2 before bioluminescence resonance energy transfer (BRET) measurements. To measure BRET, NanoBRET NanoGlo Substrate + extracellular NanoLuc Inhibitor (Promega, N2540) was added as per the manufacturer’s protocol, and filtered luminescence was measured on a PHERAstar plate reader (BMG Labtech) equipped with a luminescence filter pair [450-nm BP filter (donor) and 610-nm LP filter (acceptor)]. […] (For step-by-step protocol, see www.eubopen.org/sites/www.eubopen.org/files/attachments/2021/NanoBRET-IC50_v1_0.pdf.)

DYRK2 = biological target: T2, DYRK2 (Homo sapiens, UniProt Q92630)
T2 construct: host or cells: HEK293T (ATCC CRL-3216)
T2 sequence (Q92630 1-601): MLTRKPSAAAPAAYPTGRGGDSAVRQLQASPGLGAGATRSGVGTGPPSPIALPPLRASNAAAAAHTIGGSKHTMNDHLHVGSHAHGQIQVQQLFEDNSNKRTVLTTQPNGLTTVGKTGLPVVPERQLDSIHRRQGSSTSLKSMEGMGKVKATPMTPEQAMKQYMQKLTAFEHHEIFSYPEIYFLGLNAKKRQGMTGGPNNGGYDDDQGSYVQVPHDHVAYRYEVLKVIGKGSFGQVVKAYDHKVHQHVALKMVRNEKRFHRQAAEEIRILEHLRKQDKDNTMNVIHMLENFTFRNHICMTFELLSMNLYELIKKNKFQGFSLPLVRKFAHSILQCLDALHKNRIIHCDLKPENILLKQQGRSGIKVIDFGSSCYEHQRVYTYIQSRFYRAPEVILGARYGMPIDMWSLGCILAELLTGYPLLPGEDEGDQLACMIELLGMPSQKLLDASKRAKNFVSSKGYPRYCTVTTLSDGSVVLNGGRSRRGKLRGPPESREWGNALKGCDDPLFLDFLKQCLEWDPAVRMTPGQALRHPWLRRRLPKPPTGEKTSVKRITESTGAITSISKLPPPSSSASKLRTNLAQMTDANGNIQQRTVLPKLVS
Method: as §1

STK10 = biological target: T3, STK10 (Homo sapiens, UniProt O94804)
T3 construct: host or cells: HEK293T (ATCC CRL-3216)
Method: as §1

[1] = in cellulo nanoBRET, 293T cells

T3 sequence (O94804 whole entry): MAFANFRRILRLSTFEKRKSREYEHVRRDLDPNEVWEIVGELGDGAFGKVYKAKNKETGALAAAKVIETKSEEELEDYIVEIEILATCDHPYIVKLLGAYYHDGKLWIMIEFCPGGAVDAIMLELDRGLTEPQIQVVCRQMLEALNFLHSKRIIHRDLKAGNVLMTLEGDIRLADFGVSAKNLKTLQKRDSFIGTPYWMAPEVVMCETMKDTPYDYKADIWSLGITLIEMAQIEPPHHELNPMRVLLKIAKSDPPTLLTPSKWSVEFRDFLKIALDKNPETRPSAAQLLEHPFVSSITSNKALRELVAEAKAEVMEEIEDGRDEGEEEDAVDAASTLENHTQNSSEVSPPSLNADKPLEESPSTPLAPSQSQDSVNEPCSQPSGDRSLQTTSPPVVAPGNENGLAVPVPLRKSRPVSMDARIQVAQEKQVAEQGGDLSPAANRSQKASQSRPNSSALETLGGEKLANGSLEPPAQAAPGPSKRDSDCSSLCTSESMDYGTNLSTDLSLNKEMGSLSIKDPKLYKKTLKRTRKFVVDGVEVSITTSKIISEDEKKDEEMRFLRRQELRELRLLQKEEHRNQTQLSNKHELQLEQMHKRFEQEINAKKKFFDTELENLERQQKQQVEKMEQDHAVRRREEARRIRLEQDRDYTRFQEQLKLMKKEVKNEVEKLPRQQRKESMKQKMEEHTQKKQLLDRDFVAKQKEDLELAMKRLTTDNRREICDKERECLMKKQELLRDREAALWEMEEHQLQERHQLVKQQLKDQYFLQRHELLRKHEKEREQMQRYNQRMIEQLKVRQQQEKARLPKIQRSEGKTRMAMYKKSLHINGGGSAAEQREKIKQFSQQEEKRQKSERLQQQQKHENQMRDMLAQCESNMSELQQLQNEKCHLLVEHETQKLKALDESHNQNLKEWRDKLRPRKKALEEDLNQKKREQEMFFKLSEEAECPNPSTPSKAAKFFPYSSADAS

CCSc1nc(NC)c2c(-c3cccc(NC(=O)Nc4cc(C(C)(C)C)nn4-c4ccc(C)cc4)c3)c[nH]c2n1 [Compound 32]
nanoBRET response normalized to 0% (no tracer) and 100% (no inhibitor) control (TTK; TTK, inhibitor 8 nM, two replicates, listed as RN341, 0.008 µM): 91.3329% | remaining activity at 0.008 µM (TTK; TTK, inhibitor 8 nM, two replicates, read-out: nanoBRET response normalized to 0% (no tracer) and 100% (no inhibitor) control): 96.9% | nanoBRET response normalized to 0% (no tracer) and 100% (no inhibitor) control (TTK; TTK, inhibitor 16 nM, two replicates, listed as RN341, 0.016 µM): 88.618% | remaining activity at 0.016 µM (TTK; TTK, inhibitor 16 nM, two replicates, read-out: nanoBRET response normalized to 0% (no tracer) and 100% (no inhibitor) control): 84.1% | nanoBRET response normalized to 0% (no tracer) and 100% (no inhibitor) control (TTK; TTK, inhibitor 50 nM, two replicates, listed as RN341, 0.05 µM): 96.6909% | remaining activity at 0.05 µM (TTK; TTK, inhibitor 50 nM, two replicates, read-out: nanoBRET response normalized to 0% (no tracer) and 100% (no inhibitor) control): 85.3% | nanoBRET response normalized to 0% (no tracer) and 100% (no inhibitor) control (TTK; TTK, inhibitor 250 nM, two replicates, listed as RN341, […]): 83.1162% | remaining activity at […] (TTK; TTK, inhibitor 250 nM, two replicates, read-out: nanoBRET response normalized to 0% (no tracer) and 100% (no inhibitor) control): 80% | nanoBRET response normalized to 0% (no tracer) and 100% (no inhibitor) control (TTK; TTK, inhibitor 500 nM, two replicates, listed as RN341, 0.5 µM): 67.3053% | remaining activity at 0.5 µM (TTK; TTK, inhibitor 500 nM, two replicates, read-out: nanoBRET response normalized to 0% (no tracer) and 100% (no inhibitor) control): 61.5% | nanoBRET response normalized to 0% (no tracer) and 100% (no inhibitor) control (TTK; TTK, inhibitor 2500 nM, two replicates, listed as RN341, […]): 72.9908% | remaining activity at […] (TTK; TTK, inhibitor 2500 nM, two replicates, read-out: nanoBRET response normalized to 0% (no tracer) and 100% (no inhibitor) control): 70.3% | nanoBRET response normalized to 0% (no tracer) and 100% (no inhibitor) control (TTK; TTK, inhibitor 5000 nM, two replicates, listed as RN341, 5 µM): 54.1735% | remaining activity at 5 µM (TTK; TTK, inhibitor 5000 nM, two replicates, read-out: nanoBRET response normalized to 0% (no tracer) and 100% (no inhibitor) control): 40.9% | nanoBRET response normalized to 0% (no tracer) and 100% (no inhibitor) control (TTK; TTK, inhibitor 25000 nM, two replicates, listed as RN341, 25 µM): 18.6146% | remaining activity at 25 µM (TTK; TTK, inhibitor 25000 nM, two replicates, read-out: nanoBRET response normalized to 0% (no tracer) and 100% (no inhibitor) control): 14.2% | EC50 (TTK; [1]): < 5 µM and 3.2 µM | EC50 (DYRK2): ≥ 20 µM | nanoBRET response normalized to 0% (no tracer) and 100% (no inhibitor) control (DYRK2; DYRK2, inhibitor 8 nM, two replicates, listed as RN341, 0.008 µM): 91.4839% | remaining nanoBRET tracer signal (% of no-inhibitor control) at 0.008 µM (DYRK2; DYRK2, inhibitor 8 nM, two replicates, read-out: nanoBRET response normalized to 0% (no tracer) and 100% (no inhibitor) control): 100% | nanoBRET response normalized to 0% (no tracer) and 100% (no inhibitor) control (DYRK2; DYRK2, inhibitor 16 nM, two replicates, listed as RN341, 0.016 µM): 93.886% | remaining nanoBRET tracer signal (% of no-inhibitor control) at 0.016 µM (DYRK2; DYRK2, inhibitor 16 nM, two replicates, read-out: nanoBRET response normalized to 0% (no tracer) and 100% (no inhibitor) control): 98.2% | nanoBRET response normalized to 0% (no tracer) and 100% (no inhibitor) control (DYRK2; DYRK2, inhibitor 50 nM, two replicates, listed as RN341, 0.05 µM): 96.6464% | remaining nanoBRET tracer signal (% of no-inhibitor control) at 0.05 µM (DYRK2; DYRK2, inhibitor 50 nM, two replicates, read-out: nanoBRET response normalized to 0% (no tracer) and 100% (no inhibitor) control): 100% | remaining nanoBRET tracer signal (% of no-inhibitor control) at […] (DYRK2; DYRK2, inhibitor 250 nM, two replicates, read-out: nanoBRET response normalized to 0% (no tracer) and 100% (no inhibitor) control): 102% and 94.4% | nanoBRET response normalized to 0% (no tracer) and 100% (no inhibitor) control (DYRK2; DYRK2, inhibitor 500 nM, two replicates, listed as RN341, 0.5 µM): 90.6654% | remaining nanoBRET tracer signal (% of no-inhibitor control) at 0.5 µM (DYRK2; DYRK2, inhibitor 500 nM, two replicates, read-out: nanoBRET response normalized to 0% (no tracer) and 100% (no inhibitor) control): 98.4% | nanoBRET response normalized to 0% (no tracer) and 100% (no inhibitor) control (DYRK2; DYRK2, inhibitor 2500 nM, two replicates, listed as RN341, […]): 86.4231% | remaining nanoBRET tracer signal (% of no-inhibitor control) at […] (DYRK2; DYRK2, inhibitor 2500 nM, two replicates, read-out: nanoBRET response normalized to 0% (no tracer) and 100% (no inhibitor) control): 88.8% | nanoBRET response normalized to 0% (no tracer) and 100% (no inhibitor) control (DYRK2; DYRK2, inhibitor 5000 nM, two replicates, listed as RN341, 5 µM): 92.7606% | remaining nanoBRET tracer signal (% of no-inhibitor control) at 5 µM (DYRK2; DYRK2, inhibitor 5000 nM, two replicates, read-out: nanoBRET response normalized to 0% (no tracer) and 100% (no inhibitor) control): 83.2% | nanoBRET response normalized to 0% (no tracer) and 100% (no inhibitor) control (DYRK2; DYRK2, inhibitor 25000 nM, two replicates, listed as RN341, 25 µM): 54.6216% | remaining nanoBRET tracer signal (% of no-inhibitor control) at 25 µM (DYRK2; DYRK2, inhibitor 25000 nM, two replicates, read-out: nanoBRET response normalized to 0% (no tracer) and 100% (no inhibitor) control): 47.6% | nanoBRET response normalized to 0% (no tracer) and 100% (no inhibitor) control (STK10; STK10, inhibitor 8 nM, two replicates, listed as RN341, 0.008 µM): 93.5752% | remaining activity at 0.008 µM (STK10; STK10, inhibitor 8 nM, two replicates, read-out: nanoBRET response normalized to 0% (no tracer) and 100% (no inhibitor) control): 98.7% | nanoBRET response normalized to 0% (no tracer) and 100% (no inhibitor) control (STK10; STK10, inhibitor 16 nM, two replicates, listed as RN341, 0.016 µM): 98.653% | remaining activity at 0.016 µM (STK10; STK10, inhibitor 16 nM, two replicates, read-out: nanoBRET response normalized to 0% (no tracer) and 100% (no inhibitor) control): 95% | nanoBRET response normalized to 0% (no tracer) and 100% (no inhibitor) control (STK10; STK10, inhibitor 50 nM, two replicates, listed as RN341, 0.05 µM): 90.2983% | remaining activity at 0.05 µM (STK10; STK10, inhibitor 50 nM, two replicates, read-out: nanoBRET response normalized to 0% (no tracer) and 100% (no inhibitor) control): 93.4% | nanoBRET response normalized to 0% (no tracer) and 100% (no inhibitor) control (STK10; STK10, inhibitor 250 nM, two replicates, listed as RN341, […]): 75.9451% | remaining activity at […] (STK10; STK10, inhibitor 250 nM, two replicates, read-out: nanoBRET response normalized to 0% (no tracer) and 100% (no inhibitor) control): 77.3% | nanoBRET response normalized to 0% (no tracer) and 100% (no inhibitor) control (STK10; STK10, inhibitor 500 nM, two replicates, listed as RN341, 0.5 µM): 59.4137% | remaining activity at 0.5 µM (STK10; STK10, inhibitor 500 nM, two replicates, read-out: nanoBRET response normalized to 0% (no tracer) and 100% (no inhibitor) control): 61.4% | nanoBRET response normalized to 0% (no tracer) and 100% (no inhibitor) control (STK10; STK10, inhibitor 2500 nM, two replicates, listed as RN341, […]): 44.5595% | remaining activity at […] (STK10; STK10, inhibitor 2500 nM, two replicates, read-out: nanoBRET response normalized to 0% (no tracer) and 100% (no inhibitor) control): 60.9% | nanoBRET response normalized to 0% (no tracer) and 100% (no inhibitor) control (STK10; STK10, inhibitor 5000 nM, two replicates, listed as RN341, 5 µM): 40.1132% | remaining activity at 5 µM (STK10; STK10, inhibitor 5000 nM, two replicates, read-out: nanoBRET response normalized to 0% (no tracer) and 100% (no inhibitor) control): 58.5% | nanoBRET response normalized to 0% (no tracer) and 100% (no inhibitor) control (STK10; STK10, inhibitor 25000 nM, two replicates, listed as RN341, 25 µM): 8.0832% | remaining activity at 25 µM (STK10; STK10, inhibitor 25000 nM, two replicates, read-out: nanoBRET response normalized to 0% (no tracer) and 100% (no inhibitor) control): 6.79% | EC50 (STK10; [1]): < 5 µM and 1.5 µM

Source: PMC12136037, “Type II kinase inhibitors that target Parkinson’s disease–associated LRRK2” (Science Advances, 2025)
